# Reference: PMC4775085 (ACS chemical neuroscience, 2015)
# Legend:
# [1] = system: acetylated histone 3 in N2a cells; assay: Acetylated histone 3/histone 4 ratio in N2a cells by Western blot; assay type: cell-based, mouse; settings: overnight, vehicle = 1.00
# HDAC4 = HDAC4 (Homo sapiens, UniProt P56524); assay: HDAC4 enzymatic inhibition assay
# HDAC7 = biological target: T1, HDAC7 (Homo sapiens, UniProt Q8WUI4); assay: HDAC7 enzymatic inhibition assay
# T1 sequence (Q8WUI4 1-952): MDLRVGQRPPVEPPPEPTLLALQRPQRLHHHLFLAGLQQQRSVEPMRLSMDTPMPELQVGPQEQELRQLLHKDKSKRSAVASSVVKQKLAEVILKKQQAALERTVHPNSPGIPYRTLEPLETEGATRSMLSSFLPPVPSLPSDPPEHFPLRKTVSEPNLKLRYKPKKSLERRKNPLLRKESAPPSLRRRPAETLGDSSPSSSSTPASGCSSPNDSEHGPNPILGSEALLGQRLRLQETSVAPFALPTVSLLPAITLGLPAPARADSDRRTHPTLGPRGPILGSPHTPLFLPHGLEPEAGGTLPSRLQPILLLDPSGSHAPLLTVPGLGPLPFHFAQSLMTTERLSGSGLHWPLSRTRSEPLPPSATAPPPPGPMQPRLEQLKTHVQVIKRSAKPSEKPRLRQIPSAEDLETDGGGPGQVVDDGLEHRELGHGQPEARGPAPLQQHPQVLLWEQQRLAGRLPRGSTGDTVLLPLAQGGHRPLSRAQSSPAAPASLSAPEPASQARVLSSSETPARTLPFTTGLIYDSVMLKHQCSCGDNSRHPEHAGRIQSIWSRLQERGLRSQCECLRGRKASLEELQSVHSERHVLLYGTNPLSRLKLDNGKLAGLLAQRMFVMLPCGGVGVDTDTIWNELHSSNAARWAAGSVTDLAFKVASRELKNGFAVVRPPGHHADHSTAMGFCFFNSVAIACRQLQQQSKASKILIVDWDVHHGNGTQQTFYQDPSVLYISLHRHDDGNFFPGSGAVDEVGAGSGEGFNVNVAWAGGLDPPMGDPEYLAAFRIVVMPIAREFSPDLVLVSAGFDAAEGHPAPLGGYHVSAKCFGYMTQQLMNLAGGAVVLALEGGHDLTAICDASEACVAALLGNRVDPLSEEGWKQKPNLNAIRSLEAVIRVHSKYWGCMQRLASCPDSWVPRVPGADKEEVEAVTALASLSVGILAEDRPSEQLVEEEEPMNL
# HDAC11 = biological target: T2, HDAC11 (Homo sapiens, UniProt Q96DB2); assay: HDAC11 enzymatic inhibition assay
# T2 sequence (Q96DB2 1-347): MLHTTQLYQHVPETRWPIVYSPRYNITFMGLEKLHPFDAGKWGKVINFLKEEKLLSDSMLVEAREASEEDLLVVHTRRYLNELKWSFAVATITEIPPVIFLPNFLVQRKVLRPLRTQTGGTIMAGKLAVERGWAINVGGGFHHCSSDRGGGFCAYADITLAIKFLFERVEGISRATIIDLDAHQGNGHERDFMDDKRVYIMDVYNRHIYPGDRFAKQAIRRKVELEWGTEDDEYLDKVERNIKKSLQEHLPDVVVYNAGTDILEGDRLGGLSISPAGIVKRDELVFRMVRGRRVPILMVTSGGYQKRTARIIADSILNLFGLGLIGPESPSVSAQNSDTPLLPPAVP
# Chain of HDAC4 (P56524 whole entry): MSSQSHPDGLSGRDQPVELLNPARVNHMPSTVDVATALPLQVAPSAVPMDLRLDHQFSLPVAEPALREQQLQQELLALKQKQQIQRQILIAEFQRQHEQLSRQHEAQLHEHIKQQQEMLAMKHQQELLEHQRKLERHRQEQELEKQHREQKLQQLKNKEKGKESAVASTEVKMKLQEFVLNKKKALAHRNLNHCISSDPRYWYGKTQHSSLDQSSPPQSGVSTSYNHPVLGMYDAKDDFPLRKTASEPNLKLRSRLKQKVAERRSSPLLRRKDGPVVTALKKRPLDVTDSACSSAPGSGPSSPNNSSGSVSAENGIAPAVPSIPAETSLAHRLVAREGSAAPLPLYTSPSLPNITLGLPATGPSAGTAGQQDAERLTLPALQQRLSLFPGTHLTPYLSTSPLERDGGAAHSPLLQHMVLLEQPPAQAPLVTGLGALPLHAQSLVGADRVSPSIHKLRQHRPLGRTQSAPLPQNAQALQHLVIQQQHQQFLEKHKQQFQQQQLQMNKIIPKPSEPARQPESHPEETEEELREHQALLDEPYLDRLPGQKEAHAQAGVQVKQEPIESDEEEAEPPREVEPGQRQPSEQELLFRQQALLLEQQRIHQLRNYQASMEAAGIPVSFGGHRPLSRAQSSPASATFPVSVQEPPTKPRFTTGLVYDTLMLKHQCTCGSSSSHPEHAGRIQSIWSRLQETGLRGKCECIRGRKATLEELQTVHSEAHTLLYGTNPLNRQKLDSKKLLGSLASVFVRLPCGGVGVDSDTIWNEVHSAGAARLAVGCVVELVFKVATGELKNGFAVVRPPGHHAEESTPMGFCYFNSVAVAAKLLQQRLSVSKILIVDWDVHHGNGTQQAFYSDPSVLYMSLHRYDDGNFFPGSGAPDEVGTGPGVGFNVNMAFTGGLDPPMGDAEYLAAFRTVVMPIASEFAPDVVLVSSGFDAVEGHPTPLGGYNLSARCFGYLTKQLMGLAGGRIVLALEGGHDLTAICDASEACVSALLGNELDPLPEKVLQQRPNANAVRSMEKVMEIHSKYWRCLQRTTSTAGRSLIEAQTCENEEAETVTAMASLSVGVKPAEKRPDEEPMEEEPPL
smiles,measurement,setting,value
"Cc1nc2ccc(F)cc2n1Cc1ccc(C(=O)NO)cc1 [30a, 4-[(6-Fluoro-2-methyl-1-benzimidazolyl)methyl]-N-hydroxybenzamide]",ratio acetylated H3/H4 (1 μM) mean,[1],did not alter the acetylation of histone 3
same,IC50,HDAC4,1460 nM
same,IC50,HDAC7,211 nM
same,IC50,HDAC11,7490 nM
